The source of these data is patent US11976070B1, “Substituted pyrimido[6’, 1’:2,3]imidazo[4,5-c][1,6]naphthyridines as CK2 inhibitors” (KING FAISAL UNIVERSITY, priority 2023, dated 2024).

pIC50: −log10 of the molar value. Like-named read-outs stand apart in the source and are kept apart here.

Assay [1] relates to HL60 (leukemia). The assay can be described thus: In vitro cytotoxic activity (MTT) assay, HL60. The note with it: Homo sapiens, HL-60; HL60 (leukemia) cells, exposed for 96 hours; read-out: IC50, 50% inhibition of cell proliferation. In kind it is cell-based. The protocol:
(§1) Compounds 1-12 were screened for their in vitro cytotoxic activity utilizing a 3-(4,5-dimethyl-thiazol-2-yl)-2,5-diphenyltetrazolium bromide (MTT) assay against selected cancer human cell lines consisting of PC3 (prostate), HCT116 (colon). A375 (melanoma), H1299 (lung), MIAPaCa-2 (pancreas), HL60 (leukemia), MCF7 (breast), MDA-MB-231 (breast) (T. Mosmann, J. Immunol. Meth., 1983, 65, 55-63). The cells were cultured at 37° C. in RMPI1640 medium supplemented with 10% fetal bovine serum, 50 IU/mL penicillin, and 50 μg/mL streptomycin in a 5% CO2 incubator. All cells were sub-cultured 3 times/week by trypsinisation. Viable cells were seeded and allowed to adhere for 12 h before a test drug was added in 96-well plates at an initial density of 1.0×10^5 cells/mL. Tumour cell lines were separately exposed to various concentrations of the tested compounds followed by incubation at a temperature of 37° C. during 96 h inside a medium of fresh RMPI 1640. Cells were subsequently incubated at 37° C. using MTT at 0.5 mg/mL during 4 h. After removal of supernatant, formazan crystals were dissolved in isopropanol and the optical density was measured at 570 nm. CX-4945 was used as a positive control.

Assay [2] concerns MDA-MB-231 (breast). The assay can be described thus: In vitro cytotoxic activity (MTT) assay, MDA-MB-231. In kind it is cell-based. The note with it: Homo sapiens; MDA-MB-231 (breast) cells, exposed for 96 hours; read-out: IC50, 50% inhibition of cell proliferation. The protocol: as §1
For assay [3], the system named is PC3 (prostate). Nature of the assay: In vitro cytotoxic activity (MTT) assay, PC3. In kind it is cell-based. The note with it: Homo sapiens, Prostate cell; PC3 (prostate) cells, exposed for 96 hours; read-out: IC50, 50% inhibition of cell proliferation. The method, then:
as §1

In assay [4] the target is T1, recombinant human CK2 (RRββ-holoenzyme) (Homo sapiens, UniProt P68400).
T1 construct: purchased Millipore
T1 sequence (P68400 whole entry): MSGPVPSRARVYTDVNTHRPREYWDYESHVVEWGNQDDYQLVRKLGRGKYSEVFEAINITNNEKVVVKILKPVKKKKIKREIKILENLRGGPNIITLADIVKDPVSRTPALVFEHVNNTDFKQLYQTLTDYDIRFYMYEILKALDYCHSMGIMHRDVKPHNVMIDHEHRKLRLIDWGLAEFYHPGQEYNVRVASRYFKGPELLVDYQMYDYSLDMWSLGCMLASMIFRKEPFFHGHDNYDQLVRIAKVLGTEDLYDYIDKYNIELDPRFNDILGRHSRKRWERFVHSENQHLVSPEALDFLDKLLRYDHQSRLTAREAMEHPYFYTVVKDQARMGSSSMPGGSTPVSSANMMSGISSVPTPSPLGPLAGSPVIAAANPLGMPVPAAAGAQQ
T1 sequence (P67870 whole entry partner): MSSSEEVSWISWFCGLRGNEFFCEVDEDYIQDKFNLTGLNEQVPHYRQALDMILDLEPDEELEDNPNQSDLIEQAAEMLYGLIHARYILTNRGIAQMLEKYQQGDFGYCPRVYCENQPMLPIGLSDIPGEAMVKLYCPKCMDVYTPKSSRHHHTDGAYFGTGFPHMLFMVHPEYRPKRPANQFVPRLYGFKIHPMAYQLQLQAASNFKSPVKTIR
The assay can be described thus: CK2 Kinase Assay (radiometric, [γ-33P]ATP). The format is biochemical. The conditions noted are these: final ATP 15 μM, 10 min at 30° C.; read-out: protein kinase CK2 inhibition IC50. The method, then: CK2 Kinase Assay was conducted using the protocol as described in Pierre F. et al; J. Med. Chem. 2011, 54, 635-654. The tested compounds in aqueous solution were added at a volume of 10 μL to a reaction mixture comprising 10 μL of assay dilution buffer (ADB; 20 mM MOPS, pH 7.2, 25 mM β-glycerol phosphate, 5 mM EGTA, 1 mM sodium orthovanadate, and 1 mM dithiothreitol), 10 μL of substrate peptide (RRRDDDSDDD, dissolved in ADB at a concentration of 1 mM), 10 μL of recombinant human CK2 (RRββ-holoenzyme, 25 ng dissolved in ADB; Millipore). Reactions were initiated by the addition of 10 μL of ATP solution (90% 75 mMMgCl2, 75 μM ATP (final ATP concentration:15 μM) dissolved in ADB; 10% [γ-33P] ATP (stock 1 mCi/100 μL: 3000 Ci/mmol (Perkin-Elmer) and maintained for 10 min at 30° C. The reactions were quenched with 100 μL of 0.75% phosphoric acid and then transferred to and filtered through a phosphor cellulose filter plate (Millipore). After washing each well five times with 0.75% phosphoric acid, the plate was dried under vacuum for 5 min and, following the addition of 15 μL of scintillation fluid to each well, the residual radioactivity was measured using a Wallac […]. The IC50 values were derived from eight concentrations of test inhibitors.

Assay [5] concerns A375 (melanoma). Nature of the assay: In vitro cytotoxic activity (MTT) assay, A375. The format is cell-based. The conditions noted are these: Homo sapiens, A-375; A375 (melanoma) cells, exposed for 96 hours; read-out: IC50, 50% inhibition of cell proliferation. The protocol:
as §1

Assay [6] relates to MIAPaCa-2 (pancreas). Nature of the assay: In vitro cytotoxic activity (MTT) assay, MIAPaCa-2. The format is cell-based. The note with it: Homo sapiens, MIA PaCa-2; MIAPaCa-2 (pancreas) cells, exposed for 96 hours; read-out: IC50, 50% inhibition of cell proliferation. The protocol:
as §1

Assay [7] deals with HCT116 (colon). Nature of the assay: In vitro cytotoxic activity (MTT) assay, HCT116. The conditions noted are these: Homo sapiens, HCT-116; HCT116 (colon) cells, exposed for 96 hours; read-out: IC50, 50% inhibition of cell proliferation. In kind it is cell-based. The protocol:
as §1

The test system of assay [8] is various human cancer cell lines. The assay can be described thus: In vitro cytotoxic activity assay, panel statement. In kind it is cell-based. The method, then:
as §1

Assay [9] deals with H1299 (lung). The assay can be described thus: In vitro cytotoxic activity (MTT) assay, H1299. In kind it is cell-based. The conditions noted are these: Homo sapiens, NCI-H1299; H1299 (lung) cells, exposed for 96 hours; read-out: IC50, 50% inhibition of cell proliferation. The protocol:
as §1

In assay [10] the test system is MCF7 (breast). Nature of the assay: In vitro cytotoxic activity (MTT) assay, MCF7. The note with it: Homo sapiens; MCF7 (breast) cells, exposed for 96 hours; read-out: IC50, 50% inhibition of cell proliferation. In kind it is cell-based. The method, then: as §1

As to `Clc1cccc(Nc2nc3ccncc3c3nc4ccncn4c23)c1` [Compound 1, N-(3-chlorophenyl)pyrimido[6′,1′:2,3]imidazo[4,5-c][1,6]naphthyridin-6-amine], the pIC50 in assay [1] was 5.49; in assay [2], 5.35; in [3] it was 5.85; in assay [4], 7.66; in assay [5] it was 5.54; in [6] it was 6.05. Also, the pIC50 in assay [7] is 5.96; in assay [9] it was 5.60; in [10], 5.29. Further, the “in vitro anti-proliferative activity, in words” value is “promising anti-proliferative activity” in assay [8] and “promising in vitro anti-proliferative activity” in [8] (listed as 13).
